Measured values as given in patent US12180187B2, “1-phenyl-5-azinylpyrazolyl-3-oxyalkyl acids and their use for controlling unwanted plant growth” (BAYER AKTIENGESELLSCHAFT, priority 2019, dated 2024).

Columns and labels:
[1] = tested on: POLCO; assay: Pre-emergence action at 320 g/ha against POLCO; type: in vivo, Fallopia convolvulus (Polygonum convolvulus); conditions: visual scoring after about 3 weeks vs untreated controls
Procedure, shortened: (§1)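 Effect rated visually (% vs untreated control) about 3 weeks after pre-emergence spraying of WP/EC formulation onto soil; spray carried 0.5% additive at 600 l/ha water.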

[2] = tested on: VERPE; assay: Pre-emergence action at 320 g/ha against VERPE; type: in vivo, Veronica persica; conditions: visual scoring after about 3 weeks vs untreated controls
Procedure, shortened: as §1

[3] = tested on: ALOMY; assay: Pre-emergence action at 320 g/ha against ALOMY; type: in vivo, Alopecurus myosuroides; conditions: scored visually after about 3 weeks vs untreated controls (100% = plants have died)
Procedure, shortened: as §1

[4] = tested on: DIGSA; assay: Pre-emergence action at 320 g/ha against DIGSA; type: in vivo, Digitaria sanguinalis; conditions: visual scoring after about 3 weeks vs untreated controls
Source text: (§2) b) Seeds of monocotyledonous and dicotyledonous weed plants and crop plants are placed in plastic or organic planting pots and covered with soil. The compounds of the invention, formulated in the form of wettable powders (WP) or as emulsion concentrates (EC), are then applied onto the surface of the covering soil as aqueous suspension or emulsion with addition of 0.5% additive at a water application rate of 600 l/ha (converted). After the treatment, the pots are placed in a greenhouse and kept under good growth conditions for the trial plants. After about 3 weeks, the effect of the preparations is scored visually in comparison with untreated controls as percentages. For example, 100% activity=the plants have died, 0% activity=like control plants. Tables 13 to 26 below show the effects of selected compounds of the general formula (I) on various harmful plants and at an application rate corresponding to 320 g/ha, which were obtained by the experimental procedure mentioned above.

[5] = tested on: LOLRI; assay: Pre-emergence action at 320 g/ha against LOLRI; type: in vivo, Lolium rigidum; conditions: visual scoring after about 3 weeks vs untreated controls
Source text: as §2

[6] = tested on: MATIN; assay: Pre-emergence action at 320 g/ha against MATIN; type: in vivo, Tripleurospermum inodorum (Matricaria inodora); conditions: visual scoring after about 3 weeks vs untreated controls
Procedure, shortened: as §1

[7] = tested on: AMARE; assay: Pre-emergence action at 320 g/ha against AMARE; type: in vivo, Amaranthus retroflexus; conditions: visual scoring after about 3 weeks vs untreated controls
Procedure, shortened: as §1

[8] = tested on: ECHGC; assay: Pre-emergence action at 320 g/ha against ECHGC; type: in vivo, Echinochloa crus-galli; conditions: visual scoring after about 3 weeks vs untreated controls
Source text: as §2

[9] = tested on: SETVI; assay: Pre-emergence action at 320 g/ha against SETVI; type: in vivo, Setaria viridis; conditions: visual scoring after about 3 weeks vs untreated controls
Procedure, shortened: as §1

[10] = tested on: AVEFA; assay: Pre-emergence action at 320 g/ha against AVEFA; type: in vivo; conditions: visual scoring after about 3 weeks vs untreated controls
Source text: as §2

[11] = tested on: VIOTR; assay: Pre-emergence action at 320 g/ha against VIOTR; type: in vivo, Viola tricolor; conditions: dosage 320 g/ha
Procedure, shortened: as §1

[12] = tested on: STEME; assay: Post-emergence action against STEME, 1.28 kg/ha; type: in vivo, Stellaria media; conditions: dosage 1280 g/ha, visual rating about 3 weeks after treatment vs untreated controls (100% = plants died)
Procedure, shortened: (§3)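 Foliar application at the one-leaf stage: compound as WP or EC in water with 0.5% additive, sprayed at 600 L/ha. Plants are kept about 3 weeks in the greenhouse, then % herbicidal action is estimated visually (100% = death).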

[13] = tested on: VERPE; assay: Pre-emergence action against VERPE, 1280 g/ha; type: in vivo, Veronica persica; conditions: scored visually after about 3 weeks vs untreated controls (100% = plants have died)
Procedure, shortened: (§4)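 Mono- and dicot weed seeds sown in sandy loam were treated on the covering soil surface with WP or EC formulations plus 0.5% additive at 600 L water/ha. Pots stayed in a greenhouse; damage was scored visually after ~3 weeks as percent versus untreated controls (100% = dead).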

[14] = tested on: MATIN; assay: Post-emergence action against MATIN, 1.28 kg/ha; type: in vivo, Tripleurospermum inodorum (Matricaria inodora); conditions: dosage 1280 g/ha, visual rating about 3 weeks after treatment vs untreated controls (100% = plants died)
Procedure, shortened: as §3

[15] = tested on: POAAN; assay: Pre-emergence action against POAAN, 1280 g/ha; type: in vivo, Poa annua; conditions: visual scoring after about 3 weeks vs untreated controls, 100% = plants have died, 0% = like control plants
Procedure, shortened: as §4

[16] = tested on: ALOMY; assay: Post-emergence action against ALOMY, 1.28 kg/ha; type: in vivo, Alopecurus myosuroides; conditions: dosage 1280 g/ha, visual rating about 3 weeks after treatment vs untreated controls
Procedure, shortened: as §3

[17] = tested on: SETVI; assay: Pre-emergence action against SETVI, 1280 g/ha; type: in vivo, Setaria viridis; conditions: visual scoring after about 3 weeks vs untreated controls, 100% = plants have died, 0% = like control plants
Procedure, shortened: as §4

[18] = tested on: KCHSC; assay: Post-emergence action against KCHSC, 1.28 kg/ha; type: in vivo, Bassia scoparia; conditions: dosage 1280 g/ha, visual rating about 3 weeks after treatment vs untreated controls (100% = plants died)
Description: • a) Seeds of mono- and dicotyledonous weed plants are placed in plastic pots in sandy loam soil (twin sowing with one species each of mono- or dicotyledonous weed plants per pot), covered with soil and cultivated in a greenhouse under controlled growth conditions. 2 to 3 weeks after sowing, the test plants are treated at the one-leaf stage. The compounds of the invention, formulated in the form of wettable powders (WP) or as emulsion concentrates (EC), are applied to the green parts of the plants as aqueous suspension or emulsion with addition of 0.5% additive at a water application rate equivalent to 600 litres per hectare. After the test plants have been kept in the greenhouse under optimum growth conditions for about 3 weeks, the activity of the preparations is rated visually in comparison to untreated controls. For example, 100% activity=the plants have died, 0% activity=like control plants. As shown by the results, compounds of the general formula (I) of the invention, in post-emergence treatment, have very good herbicidal efficacy (90% to 100% herbicidal action) against harmful plants such as Abutilon theophrasti, Digitaria sanguinalis, Echinochloa crus-galli, Matricaria inodora, Poa annua, at an application rate of 1.28 kg of active substance per hectare.

[19] = tested on: DIGSA; assay: Pre-emergence action against DIGSA, 1280 g/ha; type: in vivo, Digitaria sanguinalis; conditions: visual scoring after about 3 weeks vs untreated controls, 100% = plants have died, 0% = like control plants
Procedure, shortened: as §4

[20] = tested on: VERPE; assay: Post-emergence action against VERPE, 1.28 kg/ha; type: in vivo, Veronica persica; conditions: dosage 1280 g/ha, visual rating about 3 weeks after treatment vs untreated controls (100% = plants died)
Procedure, shortened: as §3

[21] = tested on: STEME; assay: Pre-emergence action against STEME, 1280 g/ha; type: in vivo, Stellaria media; conditions: scored visually after about 3 weeks vs untreated controls (100% = plants have died)
Procedure, shortened: as §4

[22] = tested on: DIGSA; assay: Post-emergence action against DIGSA, 1.28 kg/ha; type: in vivo, Digitaria sanguinalis; conditions: dosage 1280 g/ha, visual rating about 3 weeks after treatment vs untreated controls
Procedure, shortened: as §3

[23] = tested on: ABUTH; assay: Post-emergence action against ABUTH, 1.28 kg/ha; type: in vivo, Abutilon theophrasti; conditions: dosage 1280 g/ha, visual rating about 3 weeks after treatment vs untreated controls (100% = plants died)
Procedure, shortened: as §3

[24] = tested on: MATIN; assay: Pre-emergence action against MATIN, 1280 g/ha; type: in vivo, Tripleurospermum inodorum (Matricaria inodora); conditions: scored visually after about 3 weeks vs untreated controls (100% = plants have died)
Procedure, shortened: as §4

[25] = tested on: LOLRI; assay: Pre-emergence action against LOLRI, 1280 g/ha; type: in vivo, Lolium rigidum; conditions: visual scoring after about 3 weeks vs untreated controls, 100% = plants have died, 0% = like control plants
Procedure, shortened: as §4

[26] = tested on: AMARE; assay: Pre-emergence action against AMARE, 1280 g/ha; type: in vivo, Amaranthus retroflexus; conditions: scored visually after about 3 weeks vs untreated controls (100% = plants have died)
Procedure, shortened: as §4

[27] = tested on: AMARE; assay: Post-emergence action against AMARE, 1.28 kg/ha; type: in vivo, Amaranthus retroflexus; conditions: dosage 1280 g/ha, visual rating about 3 weeks after treatment vs untreated controls (100% = plants died)
Procedure, shortened: as §3

[28] = tested on: ECHCG; assay: Pre-emergence action against ECHCG, 1280 g/ha; type: in vivo, Echinochloa crus-galli; conditions: visual scoring after about 3 weeks vs untreated controls, 100% = plants have died, 0% = like control plants
Procedure, shortened: as §4

[29] = tested on: ALOMY; assay: Pre-emergence action against ALOMY, 1280 g/ha; type: in vivo, Alopecurus myosuroides; conditions: visual scoring after about 3 weeks vs untreated controls, 100% = plants have died, 0% = like control plants
Procedure, shortened: as §4

[30] = tested on: POAAN; assay: Post-emergence action against POAAN, 1.28 kg/ha; type: in vivo, Poa annua; conditions: dosage 1280 g/ha, visual rating about 3 weeks after treatment vs untreated controls
Procedure, shortened: as §3

SMILES	Pre-emergence action against VERPE [13] [%]	Post-emergence action against MATIN [14] [%]	Pre-emergence action against POAAN [15] [%]	Post-emergence action against ALOMY [16] [%]	Pre-emergence action against SETVI [17] [%]	Post-emergence action against KCHSC [18] [%]	Pre-emergence action against DIGSA [19] [%]	Post-emergence action against VERPE [20] [%]	Pre-emergence action against STEME [21] [%]	Pre-emergence action against MATIN [24] [%]	Pre-emergence action against LOLRI [25] [%]	Pre-emergence action against AMARE [26] [%]	also measured
COC(=O)C(C)Oc1nn(-c2ccccc2F)c(-c2ccc(F)nc2)c1Br (stereo not drawn) [VII-060]													Pre-emergence action against POLCO in % [1]: 90%; Pre-emergence action against VERPE in % [2]: 100%; Pre-emergence action at 320 g/ha against ALOMY in % [3]: 100%; Pre-emergence action against DIGSA in % [4]: 100%; Pre-emergence action against LOLRI in % [5]: 100%; Pre-emergence action against MATIN in % [6]: 90%; Pre-emergence action against AMARE in % [7]: 100%; Pre-emergence action against ECHGC in % [8]: 90%; Pre-emergence action against SETVI in % [9]: 90%; Pre-emergence action against AVEFA in % [10]: 90%; Pre-emergence action against VIOTR in % [11]: 100%
O=C(O)COc1nn(-c2ccc(F)cc2)c(-c2ccc(F)nc2)c1I [VII-069]	100	90	100	100	100	90	100	100	100	90	90	100	Post-emergence action against STEME [12]: 90%; Post-emergence action against DIGSA [22]: 100%; Post-emergence action against ABUTH [23]: 90%
CCOC(=O)COc1nn(-c2ccc(F)cc2)c(-c2ccc(F)nc2)c1I [VII-102]	100	100	100	100	100	90	100	100	90	90	100	90	Post-emergence action against AMARE [27]: 100%; Pre-emergence action against ECHCG [28]: 100%; Pre-emergence action against ALOMY [29]: 90%; Post-emergence action against POAAN [30]: 100%
